Measurements: US20240400555A1 (Initial Therapeutics, Inc., priority 2023, published 2024)

tested on: MV-4-11 cells; assay: Cell Viability Assay in MV-4-11 Cells; type: cell-based; settings: Homo sapiens, MV4-11, 72 h
Outline: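 MV-4-11 cells at 7,000/well in IMDM with 10% FBS, exposed to compound for 72 h. Viability by CellTiter-Glo luminescence, normalized to DMSO as 100%, fitted with a four-parameter curve.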

SMILES | IC50 [µM]
Cn1cc(-c2ccc(C(=O)N(c3nccc4sc(C(=O)Nc5ccncc5)cc34)[C@@H]3CCCNC3)c(F)c2)nn1 [Example 813, (R)-4-(2-fluoro-4-(1-methyl-1H-1,2,3-triazol-4-yl)-N-(piperidin-3-yl)benzamido)-N-(pyridin-4-yl)thieno[3,2-c]pyridine-2-carboxamide] | 0.55

same assay, conditions: Homo sapiens, MV4-11, 72 h, MV-4-11 cells, 72 h, Cell-Titer Glo; read-out: IC50

SMILES | IC50 [µM]
Cn1cc(-c2ccc(C(=O)N(c3nccc4sc(C#CC(C)(C)O)cc34)[C@@H]3CCCNC3)c(F)c2)nn1 [Example 551, 2-fluoro-N-[2-(3-hydroxy-3-methyl-but-1-ynyl)thieno[3,2-c]pyridin-4-yl]-4-(1-methyltriazol-4-yl)-N-[(3R)-3-piperidyl]benzamide] | 0.52
Cn1cc(-c2ccc(C(=O)N(c3nccc4sc(-c5ccnc(N)c5)cc34)[C@@H]3CCCNC3)c(F)c2)nn1 [Example 478, (R)—N-(2-(2-aminopyridin-4-yl)thieno[3,2-c]pyridin-4-yl)-2-fluoro-4-(1-methyl-1H-1,2,3-triazol-4-yl)-N-(piperidin-3-yl)benzamide] | 0.34
Cc1csc2ccnc(N(C(=O)c3ccc(Nc4ncccn4)cc3F)[C@@H]3CCCNC3)c12 [Example 468, (R)-2-fluoro-N-(3-methylthieno[3,2-c]pyridin-4-yl)-N-(piperidin-3-yl)-4-(pyrimidin-2-ylamino)benzamide] | 0.12
Cc1cccc2ccnc(N(C(=O)c3ccc(Nc4nccc(C5CCC(O)CC5)n4)cc3F)[C@@H]3CCCNC3)c12 (stereo partly drawn) [Example 679, (R)-2-fluoro-4-((4-(4-hydroxycyclohexyl)pyrimidin-2-yl)amino)-N-(8-methylisoquinolin-1-yl)-N-(piperidin-3-yl)benzamide] | 0.2
Cc1cccc2ccnc(N(C(=O)c3ccc(Nc4nccc(N5CCC[C@@H](O)C5)n4)cc3F)[C@@H]3CCCNC3)c12 [Example 623, 2-fluoro-4-((4-((R)-3-hydroxypiperidin-1-yl)pyrimidin-2-yl)amino)-N-(8-methylisoquinolin-1-yl)-N—((R)-piperidin-3-yl)benzamide] | 0.03
O=C(c1ccc(-n2nnc3cccnc32)cc1F)N(c1nccc2sc(-c3ccc(O)cc3)cc12)[C@@H]1CCCNC1 [Example 377, (R)-4-(3H-[1,2,3]triazolo[4,5-b]pyridin-3-yl)-2-fluoro-N-(2-(4-hydroxyphenyl)thieno[3,2-c]pyridin-4-yl)-N-(piperidin-3-yl)benzamide] | 1.3
Cc1cc(-c2ccc(C(=O)N(c3nccc4cccc(C)c34)[C@@H]3CCCNC3)c(F)c2)on1 [Example 316, (R)-2-fluoro-N-(8-methylisoquinolin-1-yl)-4-(3-methylisoxazol-5-yl)-N-(piperidin-3-yl) benzamide] | 0.082
CCc1nnc(-c2ccc(C(=O)N(c3nccc4cc(Cl)cc(C)c34)[C@@H]3CCCNC3)c(F)c2)s1 [Example 700, (R)—N-(6-chloro-8-methylisoquinolin-1-yl)-4-(5-ethyl-1,3,4-thiadiazol-2-yl)-2-fluoro-N-(piperidin-3-yl)benzamide] | 0.21
Cn1cc(-c2ccc(C(=O)N(c3nccc4cc(/C=C/C(N)=O)ccc34)[C@@H]3CCCNC3)c(F)c2)nn1 [Example 496, (R,E)-N-(6-(3-amino-3-oxoprop-1-en-1-yl)isoquinolin-1-yl)-2-fluoro-4-(1-methyl-1H-1,2,3-triazol-4-yl)-N-(piperidin-3-yl)benzamide] | 5.4
Cn1cc(-c2ccc(C(=O)N(c3nccc4cc(-c5ccc(F)cc5)ccc34)[C@@H]3CCCNC3)c(F)c2)nn1 [Example 580, (R)-2-fluoro-N-(6-(4-fluorophenyl)isoquinolin-1-yl)-4-(1-methyl-1H-1,2,3-triazol-4-yl)-N-(piperidin-3-yl)benzamide] | 0.43
COCCn1cc(-c2ccc(C(=O)N(c3nccc4scc(C)c34)[C@@H]3CCCNC3)cn2)nn1 [Example 638, (R)-6-(1-(2-methoxyethyl)-1H-1,2,3-triazol-4-yl)-N-(3-methylthieno[3,2-c]pyridin-4-yl)-N-(piperidin-3-yl)nicotinamide] | 0.047
CCOC(=O)/C=C/c1cc2c(N(C(=O)c3ccc(-n4nnc5cccnc54)cc3F)[C@@H]3CCCNC3)nccc2s1 [Example 501, ethyl (E)-3-[4-[[2-fluoro-4-(triazolo[4,5-b]pyridin-3-yl)benzoyl]-[(3R)-3-piperidyl]amino]thieno[3,2-c]pyridin-2-yl]prop-2-enoate] | 0.8
COCc1cn(-c2ccc(C(=O)N(c3nccc4cc(Cl)cc(C)c34)[C@@H]3CCCNC3)cn2)nn1 [Example 631, (R)—N-(6-chloro-8-methylisoquinolin-1-yl)-6-(4-(methoxymethyl)-1H-1,2,3-triazol-1-yl)-N-(piperidin-3-yl)nicotinamide] | 0.1
COc1nnc(-c2ccc(C(=O)N(c3nccc4cc(F)cc(C)c34)[C@@H]3CCCNC3)c(F)c2)s1 [Example 710, 2-fluoro-N-(6-fluoro-8-methyl-1-isoquinolyl)-4-(5-methoxy-1,3,4-thiadiazol-2-yl)-N-[(3R)-3-piperidyl]benzamide] | 2.3
Cc1cc(-c2cccnc2)cc2ccnc(N(C(=O)c3ccc(-n4nnc5cccnc54)cc3F)[C@@H]3CCCNC3)c12 [Example 421, (R)-4-(3H-[1,2,3]triazolo[4,5-b]pyridin-3-yl)-2-fluoro-N-(8-methyl-6-(pyridin-3-yl)isoquinolin-1-yl)-N-(piperidin-3-yl)benzamide] | 0.016
CCc1nnc(-c2ccc(C(=O)N(c3nccc4scc(C)c34)[C@@H]3CCCNC3)c(F)c2)o1 [Example 649, (R)-4-(5-ethyl-1,3,4-oxadiazol-2-yl)-2-fluoro-N-(3-methylthieno[3,2-c]pyridin-4-yl)-N-(piperidin-3-yl)benzamide] | 0.17
Cc1ncnc(C)c1-c1ccc(C(=O)N(c2nccc3cccc(C)c23)[C@@H]2CCCNC2)c(F)c1 [Example 354, 4-(4,6-dimethylpyrimidin-5-yl)-2-fluoro-N-(8-methyl-1-isoquinolyl)-N-[(3R)-3-piperidyl]benzamide] | 0.97

Other lines, results leading:

IC50 [µM] | SMILES
0.048 | Cc1cccc2ccnc(N(C(=O)c3ccc(Nc4nccc(N5CC[C@H](N(C)C)C5)n4)cc3F)[C@@H]3CCCNC3)c12 [Example 967, 4-({4-[(3S)-3-(dimethylamino)pyrrolidin-1-yl]pyrimidin-2-yl}amino)-2-fluoro-N-(8-methylisoquinolin-1-yl)-N-[(3R)-piperidin-3-yl]benzamide]
0.13 | Cc1cc(F)cc2ccnc(N(C(=O)c3ccc(-c4nnn(C)c4C)cc3F)[C@@H]3CCCNC3)c12 [Example 829, (R)-4-(1,5-dimethyl-1H-1,2,3-triazol-4-yl)-2-fluoro-N-(6-fluoro-8-methylisoquinolin-1-yl)-N-(piperidin-3-yl)benzamide]
0.42 | Cc1cccc2ccnc(N(C(=O)c3ccc(Nc4ncccn4)nc3)[C@@H]3CCCNC3)c12 [Example 846, (R)—N-(8-methylisoquinolin-1-yl)-N-(piperidin-3-yl)-6-(pyrimidin-2-ylamino)nicotinamide]
0.056 | Cc1cccc2ccnc(N(C(=O)c3ccc(Nc4nccc(-n5ccnc5)n4)cc3F)[C@@H]3CCCNC3)c12 [Example 724, (R)-4-((4-(1H-imidazol-1-yl)pyrimidin-2-yl)amino)-2-fluoro-N-(8-methylisoquinolin-1-yl)-N-(piperidin-3-yl)benzamide]
0.4 | C=C(C)c1cccnc1N(C(=O)c1ccc(Nc2ncccn2)cc1F)[C@@H]1CCCNC1 [Example 930, (R)-2-fluoro-N-(piperidin-3-yl)-N-(3-(prop-1-en-2-yl)pyridin-2-yl)-4-(pyrimidin-2-ylamino)benzamide]
0.04 | [2H]C([2H])([2H])n1cc(-c2ccc(C(=O)N(c3nccc4cc(Cl)cc(C)c34)[C@@H]3CCCNC3)c(F)c2)nn1 [Example 893, N-(6-chloro-8-methyl-1-isoquinolyl)-2-fluoro-N-[(3R)-3-piperidyl]-4-[1-(trideuteriomethyl)triazol-4-yl]benzamide]
0.18 | Cc1cccc2ccnc(N(C(=O)c3ccc(Nc4nccc(N5CCNCC5)n4)cc3F)[C@@H]3CCCNC3)c12 [Example 718, (R)-2-fluoro-N-(8-methylisoquinolin-1-yl)-4-((4-(piperazin-1-yl)pyrimidin-2-yl)amino)-N-(piperidin-3-yl)benzamide]
0.76 | COc1ccc2c(N(C(=O)c3ccc(-c4nnc(C)s4)cc3)[C@@H]3CCCNC3)nccc2c1F [Example 868, N-(5-fluoro-6-methoxy-1-isoquinolyl)-4-(5-methyl-1,3,4-thiadiazol-2-yl)-N-[(3R)-3-piperidyl]benzamide]
0.22 | Cc1cc(F)c(F)c2ccnc(N(C(=O)c3ccc(-c4cn(C)nn4)cc3)[C@@H]3CCCNC3)c12 [Example 862, N-(5,6-difluoro-8-methyl-1-isoquinolyl)-4-(1-methyltriazol-4-yl)-N-[(3R)-3-piperidyl]benzamide]
> 6.3 | Cc1cc2c(N(C(=O)c3ccc(-n4cnc5ccccc54)cc3F)[C@@H]3CCCNC3)nccc2s1 [Example 756, (R)-4-(1H-benzo[d]imidazol-1-yl)-2-fluoro-N-(2-methylthieno[3,2-c]pyridin-4-yl)-N-(piperidin-3-yl)benzamide]
0.051 | [2H]C([2H])([2H])n1cc(-c2ccc(C(=O)N(c3nccc4cc(Cl)cc(C)c34)[C@@H]3CCCNC3)cc2)nn1 [Example 892, N-(6-chloro-8-methyl-1-isoquinolyl)-N-[(3R)-3-piperidyl]-4-[1-(trideuteriomethyl)triazol-4-yl] benzamide]
0.19 | Cc1noc(-c2ccc(C(=O)N(c3nccc4cc(Cl)cc(C)c34)[C@@H]3CCCNC3)cc2)n1 [Example 773, (R)—N-(6-chloro-8-methylisoquinolin-1-yl)-4-(3-methyl-1,2,4-oxadiazol-5-yl)-N-(piperidin-3-yl)benzamide]
2.7 | Cc1cc(C(=O)N(c2nccc3cccc(C)c23)[C@@H]2CCCNC2)ccc1Nc1ncccn1 [Example 747, (R)-3-methyl-N-(8-methylisoquinolin-1-yl)-N-(piperidin-3-yl)-4-(pyrimidin-2-ylamino)benzamide]
